In ChEMBL document CHEMBL1201862, “PubChem BioAssay data set” (2004):
Activity calls are given as the source filed them.

Key:
[1] = molecular target: T1, Methionyl-tRNA synthetase, putative (Trypanosoma brucei brucei, UniProt Q38C91); format: functional, Trypanosoma brucei brucei strain 927/4 GUTat10.1
T1 sequence (Q38C91 whole entry): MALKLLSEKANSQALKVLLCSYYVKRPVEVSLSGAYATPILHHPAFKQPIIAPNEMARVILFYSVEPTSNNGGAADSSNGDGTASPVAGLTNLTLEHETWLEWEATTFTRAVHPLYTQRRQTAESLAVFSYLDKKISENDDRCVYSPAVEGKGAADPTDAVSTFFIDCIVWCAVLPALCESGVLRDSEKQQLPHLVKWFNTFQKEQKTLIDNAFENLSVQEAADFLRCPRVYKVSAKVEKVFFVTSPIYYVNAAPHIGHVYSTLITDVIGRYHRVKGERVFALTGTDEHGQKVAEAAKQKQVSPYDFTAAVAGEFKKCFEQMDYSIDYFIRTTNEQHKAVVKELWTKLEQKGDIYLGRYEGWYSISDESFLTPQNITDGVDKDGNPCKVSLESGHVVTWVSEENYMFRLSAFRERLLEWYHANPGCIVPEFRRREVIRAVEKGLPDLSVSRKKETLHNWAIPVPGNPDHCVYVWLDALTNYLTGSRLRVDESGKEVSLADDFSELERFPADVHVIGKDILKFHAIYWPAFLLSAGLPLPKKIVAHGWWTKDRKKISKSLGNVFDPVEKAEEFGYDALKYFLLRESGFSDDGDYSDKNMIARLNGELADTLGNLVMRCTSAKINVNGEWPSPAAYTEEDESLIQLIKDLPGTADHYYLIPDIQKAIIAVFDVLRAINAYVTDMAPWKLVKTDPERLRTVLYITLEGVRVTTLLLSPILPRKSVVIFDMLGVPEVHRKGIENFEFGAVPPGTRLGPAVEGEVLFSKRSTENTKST

[2] = Late stage counterscreen for inhibitors of Trypanosoma brucei methionyl tRNA synthetase (MetRS): Luminescence-based cell-based high throughput dose response assay to identify compounds that are cytotoxic to Jurkat human T lymphocyte cells.; format: functional
[3] = Counterscreen for inhibitors of Trypanosoma brucei methionyl tRNA synthetase (MetRS): Luminescence-based cell-based high throughput dose response assay to identify compounds that are cytotoxic to Jurkat human T lymphocyte cells.; format: functional
[4] = molecular target: T1, Methionyl-tRNA synthetase, putative; format: functional, Trypanosoma brucei brucei strain 927/4 GUTat10.1; remark: listed apart in the source
Large T antigen = Large T antigen (Simian virus 40, UniProt P03070); format: functional, Betapolyomavirus macacae;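 also: Confirmatory-stage PubChem screen for compounds that inhibit SV40 T antigen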
cells [5] = settings: HEK293
[6] = viability loss in HepG2 liver cells – cell-based, ATP luminescence, cherry-pick, set 6, cytotoxicity control, dose response (AID 1053125); format: functional
cells [7] = settings: A549
[8] = CMV-driven luciferase expression suppression in HEK293 – cell-based, luminescence, dry powder, counter-screen for Pax8 inhibitor project, dose response (AID 743020); format: functional
[9] = general cell-killing toxicity readout – plate reader, dry powder samples, cytotoxicity control for PAX8 inhibitor project, dose response (AID 743021); format: functional, cell-based
Paired box protein Pax-8 = Paired box protein Pax-8 (Homo sapiens, UniProt Q06710); test: PAX8 transcriptional activity inhibition in RMG-I – RMG-I cells, luciferase, cherry-pick, dose response (AID 687027); format: functional, cell-based;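 also: luciferase reporter driven by Pax8 target thyroperoxidase promoter measured by SteadyGlo luminescence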
[10] = NIH3T3 cell viability loss – ATP luminescence, mouse fibroblasts, counter-screen, dose response (AID 2010); format: functional, cell-based;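 also: cells exposed to compound for about 90 hours before reading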
[11] = molecular target: Serine/threonine-protein phosphatase PP1-alpha catalytic subunit (Homo sapiens, UniProt P62136); test: inhibition of protein phosphatase 1 activity – biochemical, fluorescence, dose response (AID 2403);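 also: phosphatase turnover of OMFP into fluorescent 3-O-methylfluorescein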
[12] = molecular target: Serine/threonine-protein phosphatase (Homo sapiens, UniProt Q9BPW0); test: Counterscreen for inhibitors of PP1: fluorescence-based biochemical high throughput dose response assay to identify inhibitors of Protein Phosphatase 5 (PP5). [Related pubchem assays: 2034 (Summary (PP5 inhibitors)), 1987 (PP5 inhibitors in singlate), 2235 (PP1 inhibitors in singlate)]
INS1 = test: INS-1E survival protection against cytokine death – cell-based, luminescence, retest, dose response (AID 449756); format: functional; settings: Rattus norvegicus;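 also: cell death triggered by IL-1 beta plus TNF-alpha plus IFN-gamma mixture; protective hits raise ATP signal compared with cytokine alone wells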
Nonstructural protein 1 = Nonstructural protein 1 (Influenza A virus, UniProt Q194T2); format: functional, Influenza A virus (A/California/07/2009(H1N1))
[13] = molecular target: Photoreceptor-specific nuclear receptor (Homo sapiens, UniProt Q9Y5X4); format: functional, cell-based;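 also: CHO-S cells with Gal4-NCOR and VP16-NR2E3 two-hybrid luciferase reporter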
[14] = Trypanosoma cruzi growth suppression in host cells – NIH3T3 host cells, beta-gal luminescence, confirmation (AID 2044); format: functional, cell-based;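 also: intracellular parasites grown in NIH/3T3 mouse fibroblasts as host cells; luminescent beta-galactosidase reporter signal from transgenic T. cruzi replicating inside host cells; inhibitors lower the luminescence signal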
Streptococcus = test: GAS UMAA2166 growth inhibition – luminescence, BacTiterGlo, counter-screen for streptokinase expression inhibitor project, dose response (AID 1915); format: functional, organism-based;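 also: potency for reduction of bacterial viability or growth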
cells [15] = format: functional, cell-based
[16] = ATP-based viability loss in HeLa cells – cell-based, CellTiter-Glo luminescence, dry powder, set 2, cytotoxicity control, dose response (AID 720593); format: functional
[17] = test system: Streptococcus sp. 'group A'; test: Streptococcus pyogenes SK(-)GAS viability under kanamycin – luminescence, BacTiterGlo, confirmation, counter-screen for streptokinase expression inhibitor project, dose response (AID 1900); format: functional, organism-based
cells [18] = format: functional, cell-based; remark: listed apart in the source
[19] = toxicity toward immortalized ovarian surface epithelium – cell-based, plate reader, dry powder samples, cytotoxicity control for PAX8 inhibitor project, dose response (AID 743045); format: functional
[20] = OVCAR4 cell viability loss – plate reader, dry powder, SA11, cytotoxicity control for PAX8 inhibitor project, dose response (AID 743150); format: functional, cell-based; settings: OVCAR-4
[21] = OVCAR8 cell viability loss – plate reader, dry powder samples, PAX8 project, dose response (AID 743197); format: functional, cell-based; settings: OVCAR-8
[22] = IGROV1 cell killing – plate reader, dry powder samples, PAX8 inhibitor project, dose response (AID 743043); format: functional, cell-based; settings: IGROV-1
[23] = COV434 cell viability loss – plate reader, dry powder, SA7, cytotoxicity control for PAX8 inhibitor project, dose response (AID 743145); format: functional, cell-based
[24] = PAX8-dependent cell viability loss – plate reader, dry powder, dose response (AID 743049); format: functional, cell-based
[25] = OV-90 cell viability loss – plate reader, dry powder, SA8, PAX8 inhibitor project, dose response (AID 743149); format: functional, cell-based
[26] = PAX5 cellular inhibition readout – cell-based, plate reader, dry powder samples, selectivity assay for PAX8 inhibitor project, dose response (AID 743047); format: functional;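 also: HEK293 cells carrying a Pax5 driven CD19 promoter luciferase reporter; potency of inhibitors that lower reporter luminescence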
[27] = COV362 cell viability loss – plate reader, dry powder, SA12, cytotoxicity control for PAX8 inhibitor project, dose response (AID 743144); format: functional, cell-based
[28] = inhibitors acting on PAX2 in cells – cell-based, plate reader, dry powder samples, selectivity assay for PAX8 inhibitor project, dose response (AID 743048); format: functional;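 also: HEK293 cells carrying a WT1 promoter luciferase reporter driven by expressed Pax2; potency is for inhibition of Pax2 driven reporter signal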
Mu-type opioid receptor = Mu-type opioid receptor (Homo sapiens, UniProt P35372); test: Late-stage results from the probe development effort to identify antagonists of OPRK1: luminescence-based cell-based dose response OPRM1 counterscreen.; format: functional
[29] = molecular target: Delta-type opioid receptor (Homo sapiens, UniProt P41143); test: Late-stage results from the probe development effort to identify antagonists of OPRK1: fluorescence-based cell-based dose response OPRD1 counterscreen.; format: functional
[30] = molecular target: Potassium channel subfamily K member 3 (Homo sapiens, UniProt O14649); test: inhibition of human KCNK3 channel flux – CHO cells, FluxOR thallium flux, SAR follow-up (AID 652212); format: functional
Potassium channel subfamily K member 3, sequence (O14649 whole entry): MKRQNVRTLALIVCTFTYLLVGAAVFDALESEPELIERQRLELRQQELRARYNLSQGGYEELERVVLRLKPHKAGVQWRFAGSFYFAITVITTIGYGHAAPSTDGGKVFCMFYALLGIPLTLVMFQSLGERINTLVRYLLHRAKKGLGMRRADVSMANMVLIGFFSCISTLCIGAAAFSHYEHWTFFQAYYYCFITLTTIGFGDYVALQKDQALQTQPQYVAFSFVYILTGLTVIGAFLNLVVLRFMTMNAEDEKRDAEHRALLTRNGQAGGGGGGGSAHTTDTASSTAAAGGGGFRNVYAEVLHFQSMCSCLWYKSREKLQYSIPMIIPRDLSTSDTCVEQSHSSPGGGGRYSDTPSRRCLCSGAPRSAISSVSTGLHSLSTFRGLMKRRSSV

Paired box protein Pax-8, sequence (Q06710 whole entry): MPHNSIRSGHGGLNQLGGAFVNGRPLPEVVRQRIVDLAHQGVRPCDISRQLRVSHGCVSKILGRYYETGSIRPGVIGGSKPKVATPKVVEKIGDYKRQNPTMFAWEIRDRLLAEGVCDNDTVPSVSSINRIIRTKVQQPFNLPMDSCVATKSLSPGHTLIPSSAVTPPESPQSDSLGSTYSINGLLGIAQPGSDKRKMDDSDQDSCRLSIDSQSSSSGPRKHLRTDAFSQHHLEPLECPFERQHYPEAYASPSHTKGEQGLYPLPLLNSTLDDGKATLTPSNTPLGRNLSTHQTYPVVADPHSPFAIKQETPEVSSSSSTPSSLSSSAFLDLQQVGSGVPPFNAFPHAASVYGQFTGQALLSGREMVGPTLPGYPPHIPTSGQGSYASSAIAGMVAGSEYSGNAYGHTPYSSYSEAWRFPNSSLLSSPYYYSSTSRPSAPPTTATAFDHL
Photoreceptor-specific nuclear receptor, sequence (Q9Y5X4 whole entry, the tested form may be a part): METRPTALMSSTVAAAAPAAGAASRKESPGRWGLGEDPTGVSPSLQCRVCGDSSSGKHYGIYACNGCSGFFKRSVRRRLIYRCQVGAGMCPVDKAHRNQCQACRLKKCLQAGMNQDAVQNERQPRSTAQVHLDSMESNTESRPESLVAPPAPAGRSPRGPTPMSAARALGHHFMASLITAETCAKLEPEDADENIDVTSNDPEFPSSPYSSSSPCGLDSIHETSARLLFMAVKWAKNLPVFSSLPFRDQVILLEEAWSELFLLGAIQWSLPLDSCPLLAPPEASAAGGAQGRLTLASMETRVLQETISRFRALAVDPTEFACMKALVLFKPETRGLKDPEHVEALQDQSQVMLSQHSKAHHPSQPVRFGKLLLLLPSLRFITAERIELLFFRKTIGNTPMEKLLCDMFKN
Large T antigen, sequence (P03070 whole entry): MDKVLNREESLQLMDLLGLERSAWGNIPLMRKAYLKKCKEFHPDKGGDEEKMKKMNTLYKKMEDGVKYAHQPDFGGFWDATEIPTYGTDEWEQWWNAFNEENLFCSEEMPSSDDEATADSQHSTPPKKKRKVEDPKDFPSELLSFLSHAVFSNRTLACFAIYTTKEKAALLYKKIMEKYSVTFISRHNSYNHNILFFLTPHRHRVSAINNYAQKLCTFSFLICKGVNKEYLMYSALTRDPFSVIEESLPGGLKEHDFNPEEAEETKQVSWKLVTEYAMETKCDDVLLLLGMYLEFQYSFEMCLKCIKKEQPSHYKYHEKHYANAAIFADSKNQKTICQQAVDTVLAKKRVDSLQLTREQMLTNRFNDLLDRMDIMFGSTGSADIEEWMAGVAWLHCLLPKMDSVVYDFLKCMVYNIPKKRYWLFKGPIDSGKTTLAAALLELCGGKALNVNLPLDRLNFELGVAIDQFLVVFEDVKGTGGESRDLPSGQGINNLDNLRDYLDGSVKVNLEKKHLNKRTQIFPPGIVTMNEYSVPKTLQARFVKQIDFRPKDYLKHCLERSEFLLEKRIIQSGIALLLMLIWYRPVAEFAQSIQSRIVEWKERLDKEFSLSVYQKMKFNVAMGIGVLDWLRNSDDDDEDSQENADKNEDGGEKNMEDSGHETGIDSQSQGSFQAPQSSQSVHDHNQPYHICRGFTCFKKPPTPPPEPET
Mu-type opioid receptor, sequence (P35372 whole entry): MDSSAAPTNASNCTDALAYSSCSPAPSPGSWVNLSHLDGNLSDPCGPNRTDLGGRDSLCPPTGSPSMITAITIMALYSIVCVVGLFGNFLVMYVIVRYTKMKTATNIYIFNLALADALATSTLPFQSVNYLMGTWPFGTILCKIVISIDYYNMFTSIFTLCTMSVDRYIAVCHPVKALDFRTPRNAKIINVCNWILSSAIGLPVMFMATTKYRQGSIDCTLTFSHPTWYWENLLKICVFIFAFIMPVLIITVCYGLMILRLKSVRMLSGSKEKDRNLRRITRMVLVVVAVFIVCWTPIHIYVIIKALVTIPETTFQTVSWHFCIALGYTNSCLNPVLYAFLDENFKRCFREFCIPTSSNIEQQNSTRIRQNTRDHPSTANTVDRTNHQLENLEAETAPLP
Nonstructural protein 1, sequence (Q194T2 whole entry, the tested form may be a part): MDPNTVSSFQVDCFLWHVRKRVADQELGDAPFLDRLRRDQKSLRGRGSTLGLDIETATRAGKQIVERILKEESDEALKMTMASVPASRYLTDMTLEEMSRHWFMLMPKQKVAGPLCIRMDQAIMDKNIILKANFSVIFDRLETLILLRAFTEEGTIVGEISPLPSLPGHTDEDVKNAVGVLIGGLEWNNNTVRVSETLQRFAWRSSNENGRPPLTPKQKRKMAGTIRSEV
Serine/threonine-protein phosphatase, sequence (Q9BPW0 whole entry): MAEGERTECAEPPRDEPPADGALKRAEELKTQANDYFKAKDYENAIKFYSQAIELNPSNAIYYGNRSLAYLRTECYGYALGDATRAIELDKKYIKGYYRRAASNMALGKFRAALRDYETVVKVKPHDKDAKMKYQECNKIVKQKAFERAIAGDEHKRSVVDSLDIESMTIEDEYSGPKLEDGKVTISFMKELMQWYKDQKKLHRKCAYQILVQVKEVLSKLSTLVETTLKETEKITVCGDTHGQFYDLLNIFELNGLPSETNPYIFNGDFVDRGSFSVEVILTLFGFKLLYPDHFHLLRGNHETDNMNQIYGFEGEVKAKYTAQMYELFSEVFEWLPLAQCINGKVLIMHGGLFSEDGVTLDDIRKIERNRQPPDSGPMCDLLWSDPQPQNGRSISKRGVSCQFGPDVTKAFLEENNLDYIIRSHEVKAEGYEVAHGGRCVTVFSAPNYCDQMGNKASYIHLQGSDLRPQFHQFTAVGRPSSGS
Serine/threonine-protein phosphatase PP1-alpha catalytic subunit, sequence (P62136 whole entry): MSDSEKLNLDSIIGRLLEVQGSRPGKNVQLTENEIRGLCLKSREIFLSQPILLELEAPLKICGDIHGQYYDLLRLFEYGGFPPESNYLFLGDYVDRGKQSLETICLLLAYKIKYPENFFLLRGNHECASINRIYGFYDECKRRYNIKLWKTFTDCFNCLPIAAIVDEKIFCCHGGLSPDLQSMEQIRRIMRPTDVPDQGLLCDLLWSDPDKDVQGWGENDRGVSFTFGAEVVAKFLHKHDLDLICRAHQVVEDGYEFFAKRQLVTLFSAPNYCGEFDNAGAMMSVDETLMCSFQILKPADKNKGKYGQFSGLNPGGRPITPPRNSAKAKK
Delta-type opioid receptor, sequence (P41143 whole entry): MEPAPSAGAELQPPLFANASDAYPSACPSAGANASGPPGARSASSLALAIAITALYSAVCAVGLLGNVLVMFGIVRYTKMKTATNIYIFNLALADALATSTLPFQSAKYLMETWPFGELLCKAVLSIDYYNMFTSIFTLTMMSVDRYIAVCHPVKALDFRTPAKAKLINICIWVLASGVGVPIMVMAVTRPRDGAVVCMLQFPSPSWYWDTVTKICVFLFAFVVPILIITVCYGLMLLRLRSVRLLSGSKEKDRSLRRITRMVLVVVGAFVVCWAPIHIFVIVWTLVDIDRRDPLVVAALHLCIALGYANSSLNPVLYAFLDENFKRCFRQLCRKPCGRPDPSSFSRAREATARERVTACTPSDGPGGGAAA

For `O=C(N/C(=C\c1cccnc1)c1nc2ccccc2[nH]1)c1cccc(Br)c1`, the IC50 [1] was 8.16 µM (active), the IC50 [2] was > 83.3 µM (inactive) and the IC50 [3] was 83.3 µM (inactive). For the same compound, the IC50 [4] was 4.56 µM (active).

In the case of `O=C(c1ccccc1)N1CCN(c2ccc(NCc3ccc4c(c3)OCO4)cc2)CC1`, the IC50 (Large T antigen) is reported as > 100 µM (active), the AC50 (cells [5]) is reported as 20.2 µM (active) and the AC50 [6] is reported as > 52 µM (inactive). For the same compound, the AC50 (cells [7]) was > 52 µM (inactive).

With `COc1ccccc1S(=O)(=O)N(C)C[C@H]1Oc2cc(C#CCC3CCCC3)ccc2S(=O)(=O)N([C@@H](C)CO)C[C@H]1C` the AC50 [8] was 55.2 µM (active), the AC50 [9] was 51.9 µM (active) and the AC50 (Paired box protein Pax-8) was 9.5 µM (active).

With `Nc1nc(-c2ccccn2)nc(N)c1Cc1ccc(Cl)cc1Cl` the EC50 [10] was < 6 µM (inconclusive), the IC50 [11] was 8.64 µM (active) and the IC50 [12] was 47.5 µM (not active). For the same compound, the AC50 (INS1) was 4.55 µM (active), the IC50 (Nonstructural protein 1) was 5.11 µM (active) and the IC50 [13] was 4.53 µM (active). For the same compound, the EC50 [14] was 1.26 µM (active), the EC50 (Streptococcus) was 13.5 µM (active) and the EC50 (cells [15]) was > 350 µM (not active). The AC50 [16] was > 52 µM (inactive), the EC50 [17] was 3.52 µM (active) and the EC50 (cells [18]) was 13.9 µM (active).

In the case of `CCCNC(=O)N(C)C[C@H]1N[C@@H](CO)[C@@H]1c1ccc(C2=CCCCC2)cc1`, the AC50 [19] is reported as 25.9 µM (active), the AC50 [20] is reported as 6.07 µM (active) and the AC50 [21] is reported as 14.4 µM (active). The AC50 [22] was 16.3 µM (active), the AC50 [23] was 18.2 µM (active) and the AC50 [24] was 10.1 µM (active). For the same compound, the AC50 (Paired box protein Pax-8) was 3.47 µM (active), the AC50 [25] was 14.5 µM (active) and the AC50 [26] was > 16 µM (inactive). The AC50 [27] was 10.7 µM (active) and the AC50 [28] was 8.91 µM (active).

With `COC(=O)c1cc(Br)cnc1N1CCC(NC2CCCC2)CC1` the IC50 (Mu-type opioid receptor) was 4 µM (active) and the IC50 [29] was 7 µM (active).

With `CCOc1ccccc1NC(=O)c1cccc(NC(=O)C2CCCO2)c1` (configuration not stated) the IC50 [30] was 0.129 µM (active).
